Measurements taken from PMC9926234, “Iterative computational design and crystallographic screening identifies potent inhibitors targeting the Nsp3 macrodomain of SARS-CoV-2” (Proceedings of the National Academy of Sciences of the …, 2023).
Where “and” joins values, the source holds several entries; their conditions need not be identical. Equal entries are not always repeated. Where two headings read alike, the source gives them in different places.

Key:
SARS-CoV-2 NSP3 Mac1 [1] = molecular target: T1, SARS-CoV-2 NSP3 Mac1 (Severe acute respiratory syndrome coronavirus 2, UniProt P0DTD1); assay type: binding; conditions: for Refined occupancy: ligand occupancy after refinement (phenix.refine)
SARS-CoV-2 NSP3 Mac1 [2] = assay: Overall hit call (binding in crystallographic soaking or the HTRF-based binding assay)
Description: Supplement pnas.2212931120.sd01.xlsx, sheet "Compound Summary" | column: HIT*

SARS-CoV-2 NSP3 Mac1 [3] = molecular target: T1, SARS-CoV-2 NSP3 Mac1; assay: biochemical; assay type: binding; conditions: for IC50: HTRF ADPr-conjugated peptide displacement, read-out: IC50; for Ki: read-out: Ki***
SARS-CoV-2 NSP3 Mac1 [4] = molecular target: T1, SARS-CoV-2 NSP3 Mac1; design: contains a conserved macrodomain enzyme (Mac1); Differential scanning fluorimetry of Mac1, maximum thermal upshift; conditions: maximum shift over tested concentrations; binder
[5] = PanDDA event map 1-BDC, crystal soak, Compound_concentration 100 mM, PanDDA run dmso_34 or nohits_35 per dataset
[6] = PanDDA event map, 1 minus background density correction, crystal soaking of Mac1
[7] = crystal soak, Compound_concentration 100 mM, Echo dispense 40 nl, PanDDA run dmso_34 or nohits_35 per dataset
[8] = ligand modeled in this dataset, crystal soak, Compound_concentration 100 mM
[9] = PanDDA event map background density correction, crystal soak, compound concentration 100 mM
[10] = ligand modeled in the crystal structure, crystal soak, compound concentration 100 mM
[11] = PanDDA event map, crystal soak, Compound_concentration 100 mM, Echo_dispense_volume 40 nl
[12] = crystal soak, Compound_concentration 100 mM, Echo_dispense_volume 40 nl, PanDDA run (background map) dmso_34, nohits_35 or nohits_62

Row | Structure (SMILES) | 1-BDC (PanDDA) (SARS-CoV-2 NSP3 Mac1 [1]; [6]) | Refined occupancy (SARS-CoV-2 NSP3 Mac1 [1]; crystal soaking of Mac1) | HIT* (SARS-CoV-2 NSP3 Mac1 [2]) | IC50 (SARS-CoV-2 NSP3 Mac1 [3]) [µM] | Ki (SARS-CoV-2 NSP3 Mac1 [3]) [µM] | 1-BDC (SARS-CoV-2 NSP3 Mac1 [1]; [9]) | Modeled? (SARS-CoV-2 NSP3 Mac1 [1]; [10]) | further results
1 | O=S1(=O)CCCC(Nc2ncnc3[nH]ccc23)C1 (stereo not shown) [SRH-0010] | 0.13 | 26 | Y | – | – | – | – | 1-BDC (SARS-CoV-2 NSP3 Mac1 [1]; [5]): 0.13; PanDDA hit? (SARS-CoV-2 NSP3 Mac1 [1]; [7]): TRUE; Modeled? (SARS-CoV-2 NSP3 Mac1 [1]; [8]): TRUE
2 | O[C@@H]1CC[C@H](Nc2ncnc3[nH]ccc23)C1 [SRH-0018] | – | 14 | Y | – | – | – | – | 1-BDC (SARS-CoV-2 NSP3 Mac1 [1]; [6]): 0.07; Modeled? (SARS-CoV-2 NSP3 Mac1 [1]; ligand modeled from this dataset, compound concentration 100 mM): TRUE
3 | c1ccc(CNc2ncnc3[nH]ccc23)nc1 [SRH-0028] | 0.09 | 18 | Y | – | – | – | – | 1-BDC (SARS-CoV-2 NSP3 Mac1 [1]; [5]): 0.09; PanDDA hit? (SARS-CoV-2 NSP3 Mac1 [1]; [7]): TRUE; Modeled? (SARS-CoV-2 NSP3 Mac1 [1]; [8]): TRUE
4 | CCC(=O)Nc1nc(C)c(S(=O)(=O)Nc2cccc(C#N)c2)s1 [Z0611] | – | – | Y | 143 | 124 | – | – | –
5 | Cc1nnc(CNc2cnc(N)c(Cl)n2)n1C1CC1 [Z1964, ZINC000893101964] | – | – | – | – | – | – | – | DSF max dTma (SARS-CoV-2 NSP3 Mac1 [4]): 0.12 °C
6 | O=C(O)CC(NC(=O)c1cc(F)cc2[nH]cnc12)c1ccc(Br)cc1 (stereo not shown) [Z3722] | – | – | Y | 26.2 | 22.8 | – | – | –
7 | O=C(Cc1ccc(-n2cccn2)cc1)OCC1CCCNC1=O (stereo not shown) [Z5505, ZINC000835985505] | – | – | – | – | – | – | – | DSF max dTma (SARS-CoV-2 NSP3 Mac1 [4]): 0.16 °C
8 | O=C(O)c1csc(CCNC(=O)c2cc3[nH]cnc3cc2F)n1 [Z5740] | 0.1 | 20 | Y | – | – | 0.1 | TRUE | –
9 | CNc1cnc(C(=O)N2CC(c3noc(O)n3)C2)cn1.O=C(O)C(F)(F)F [Z6567] | 0.31 | 62 | Y | – | – | 0.31 | TRUE | –
10 | O=C(NC1C=CC(C(=O)O)C1)c1ncnc2sccc12 (stereo not shown) [Z6645] | – | – | Y | 69.4 | 60.4 | – | – | –
11 | CCNc1ncc(C(=O)NCCn2cnc(C(=O)O)c2)s1 [Z6684] | 0.1 | 20 | Y | – | – | – | – | 1-BDC (SARS-CoV-2 NSP3 Mac1 [1]; [11]): 0.1; PanDDA hit? (SARS-CoV-2 NSP3 Mac1 [1]; [12]): TRUE; Modeled? (SARS-CoV-2 NSP3 Mac1 [1]; ligand modeled, crystal soak, Compound_concentration 100 mM, Echo_dispense_volume 40 nl): TRUE
12 | Cn1ncc2c(=O)[nH]c(CCC(=O)N3CC=C(C(=O)O)C3)nc21 [Z6689] | 0.17 | 34 | Y | – | – | 0.17 | TRUE | –
13 | Cn1ncc2ncnc(NS(=O)(=O)Cc3ccc(CC#N)cc3)c21 [Z6742] | – | – | Y | 42.4 | 36.9 | – | – | –
14 | Cn1ccn2c(CCNC(=O)[C@H]3C[C@H]3C(=O)O)nnc2c1=O [Z6744] | 0.3 | 60 | Y | – | – | 0.3 | TRUE | –
15 | O=C(NC1c2cccc(O)c2CC1C(=O)O)c1ccc2[nH]ccc2c1 (stereo not shown) [Z8539_2004] | 0.22 | 44 | Y | 7.2 | 6.3 | 0.41 and 0.22 | TRUE | –
16 | O=C(NCc1c(C(=O)O)[nH]c2ccccc12)c1ccc2[nH]cnc2c1 [Z8539_2005] | 0.19 | 38 | Y | 24.5 | 21.3 | 0.21 and 0.19 | TRUE | 1-BDC (SARS-CoV-2 NSP3 Mac1 [1]; [11]): 0.24; PanDDA hit? (SARS-CoV-2 NSP3 Mac1 [1]; [12]): TRUE
17 | O=C(NCc1c(C(=O)O)[nH]c2ccccc12)c1ccc2[nH]c(O)nc2c1 [Z8539_2006] | 0.05 | 10 | Y | 15.8 | 13.7 | 0.05 | TRUE | –
